According to patent US20220305003A1, “METHODS OF TREATING CANCER WITH AN INHIBITOR OF ZNF827” (CHILDREN'S MEDICAL RESEARCH INSTITUTE, priority 2019, published 2022):

T1: ZNF827 full length (Homo sapiens, UniProt Q17R98 SEQ:1-1081)
T1 sequence: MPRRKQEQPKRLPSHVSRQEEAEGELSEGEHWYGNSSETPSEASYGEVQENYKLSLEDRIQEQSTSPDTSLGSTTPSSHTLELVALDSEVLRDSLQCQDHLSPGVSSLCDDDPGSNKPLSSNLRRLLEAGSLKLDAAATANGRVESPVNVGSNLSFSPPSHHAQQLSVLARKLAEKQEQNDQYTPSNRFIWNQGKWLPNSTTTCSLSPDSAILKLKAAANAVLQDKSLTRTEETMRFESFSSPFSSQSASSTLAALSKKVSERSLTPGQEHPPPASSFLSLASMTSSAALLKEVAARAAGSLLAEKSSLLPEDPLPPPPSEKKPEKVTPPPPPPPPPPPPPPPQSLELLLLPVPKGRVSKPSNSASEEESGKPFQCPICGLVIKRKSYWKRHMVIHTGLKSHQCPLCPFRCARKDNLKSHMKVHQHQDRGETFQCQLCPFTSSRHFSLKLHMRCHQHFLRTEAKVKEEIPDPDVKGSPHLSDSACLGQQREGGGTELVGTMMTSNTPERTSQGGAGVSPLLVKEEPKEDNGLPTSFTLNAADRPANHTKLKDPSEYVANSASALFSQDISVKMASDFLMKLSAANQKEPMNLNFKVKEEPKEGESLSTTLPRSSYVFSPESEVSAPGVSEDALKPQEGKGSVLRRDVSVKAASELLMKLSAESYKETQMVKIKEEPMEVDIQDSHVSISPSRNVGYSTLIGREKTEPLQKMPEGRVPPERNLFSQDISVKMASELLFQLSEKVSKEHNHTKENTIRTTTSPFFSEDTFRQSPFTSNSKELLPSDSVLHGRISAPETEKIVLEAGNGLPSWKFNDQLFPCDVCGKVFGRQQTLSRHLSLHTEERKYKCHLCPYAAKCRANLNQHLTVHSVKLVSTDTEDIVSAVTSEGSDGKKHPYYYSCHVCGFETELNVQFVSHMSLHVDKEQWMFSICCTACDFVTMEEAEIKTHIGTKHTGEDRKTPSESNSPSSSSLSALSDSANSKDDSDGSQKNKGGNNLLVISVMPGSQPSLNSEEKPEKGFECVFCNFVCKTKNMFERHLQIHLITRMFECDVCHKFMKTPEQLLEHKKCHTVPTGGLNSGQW


Key:
EdU flow cytometry = assay type: cell-based; details: EdU pulse 1 hour
Protocol: Using EdU flow cytometry (5-ethynyl-2′-deoxyuridine) is a thymidine analogue which is incorporated into DNA during active DNA synthesis), the effects of ZNF827 depletion on cell cycle progression, especially on DNA replication, were examined.
EdU flow cytometry was performed with the Click-iT EdU flow cytometry kit (ThermoFisher Scientific) according to manufacturer's instructions. Briefly cells were pulsed with EdU for 1 hour at 37° C. and harvested by trypsinisation and centrifugation at 1000 rpm for 5 minutes. Cells were then fixed and labelled with Alex Fluor 647 with the flow cytometry kit following the manufacturer's protocol. For DNA content labelling, the fixed cells were treated with 0.5 mg of RNase (Sigma) and 25 μg of propidium iodide at 37° C. for 30 minutes. Labelled cells were analysed using the BD FACSCanto Flow Cytometer (BD Biosciences) containing lasers to excite Alexa Fluor 647 labelled EdU and propidium iodide. Between 10 000-15 000 events were collected at an approximate flow rate of 200 events/second. Data analysis was conducted using FlowJo 7.

HT1080 FUCCI cells = assay: Live cell imaging of cell cycle in FUCCI cells; assay type: cell-based
Protocol: To further characterise the impact of ZNF827 on the cell cycle, live cell imaging was conducted with HT1080 FUCCI cells, to monitor cell progression through the cell cycle in real-time following ZNF827 depletion. The FUCCI (fluorescence ubiquitination cell cycle indicator) cells were stably transfected with fluorescence-labelled cell cycle-regulated proteins, geminin (labelled by GFP) and Cdt1 (labelled by RFP), which are only expressed during specific phases of the cell cycle (FIG. 9c). Their expressions are used to classify cells by cell cycle phase in a live cell setting.
HT1080 FUCCI cells were seeded in glass bottom 12-well plates (MakTek Corporation) the day before imaging at 30% confluency, to ensure that cells were actively cycling for the duration of the experiment. Media was replaced with phenol red free DMEM (Gibco) supplemented with 10% FCS and drug treatment immediately before transferring the plate to the microscope chamber. Imaging was performed on the Cell Observer Widefield Microscope (Zeiss) using a 20× objective at 37° C. with 10% CO2 in a XLmulti S1 full enclosure chamber. Cells were incubated in the XLmulti S1 full enclosure chamber for 2 hours prior to imaging. Three to four positions per well were captured with AxioCam (Zeiss) 506 Mono using ZEN software (Carl Zeiss) with images taken every 6 minutes for 60 hours. More than 15 cells were analysed at each position for each condition to confirm reproducibility.

ZNF827 full length = target: T1, ZNF827 full length; assay: EMSA; 0.8 mM ZnCl2, 100 mM KCl, poly(dI:dC), on ice; details: tags: HaloTag (pHTN), expressed in HEK 293T, tag removed by HaloTEV cleavage; label: 32P (gamma)
Protocol: Purified proteins were quantified using a BCA assay using the Pierce™ BCA Protein Assay Kit according to the manufacturer's instructions. Equal amounts of purified proteins were incubated in binding buffer (20 mM HEPES-KOH, pH7.9, 100 mM KCl, 0.8 mM ZnCl₂, 0.2 mM EDTA, 5% glycerol, 0.5 mM DTT and 0.5 mM PMSF) with 6.25 μg/mL poly (dI:dC) and 50 ng/μL BSA on ice for 20 minutes. ˜0.12 nM (˜2.5 fmol) γ-³²P labelled DNA oligonucleotide (see Table 3) probes were added to samples and incubated on ice for another 30 minutes. Binding reactions were loaded onto an 8% native acrylamide/bisacrylamide (19:1, Biorad) gel pre-run at 100V in 0.5× TB buffer (89 mM Tris, 89 mM boric acid) for 20 minutes. Gels were electrophoresed at 150 V for 150 minutes at 4° C., dried at 65° C. for 45 minutes, and then exposed to a Phosphor screen overnight. Gel images were obtained by scanning the screens with a Typhoon FLA9500 Imager (GE Life Sciences).

[1] = 72 hr siRNA knockdown in conjunction with topotecan 2 μg/mL 1 hr

| Molecule | cell cycle distribution (EdU) (EdU flow cytometry) | G1 duration / G1 arrest (HT1080 FUCCI cells; 72 hr siRNA knockdown alone) | S/G2-M duration / G2/M arrest (HT1080 FUCCI cells; 72 hr siRNA knockdown alone) | G1 duration / G1 arrest (HT1080 FUCCI cells; [1]) | S/G2-M duration / G2/M arrest (HT1080 FUCCI cells; [1]) | binding result (ZNF827 full length) |
| --- | --- | --- | --- | --- | --- | --- |
| siZNF827: Stealth RNAi siRNA ZNF827HSS135819 duplex oligoribonucleotides (Invitrogen), SEQ ID NO: 12 and 13 (chain 1 GGGCAGUCUUCUGGCUGAGAAAUCA; chain 2 UGAUUUCUCAGCCAGAAGACUGCCC; listed as RNA, further chemistry not given here) | conspicuous G1 arrest and a significant reduction of S phase cells | strong G1 arrest comparable to topotecan treatment | no impact on G2/M by itself | further exacerbated G1 arrest | significant decrease in topotecan induced G2/M arrest |  |
| TTAGGGTTAGGGTTAGGG (ssDNA) [ss telomeric G rich oligo] |  |  |  |  |  | binds |
